Measurements reported in article PMC9896555, “Cyclic Acetals as Novel Long-Lasting Mosquito Repellents” (Journal of Agricultural and Food Chemistry, 2023).
Read-outs that look alike come from different tables or passages of the source.

Tests used:
[1] = system: Aedes albopictus; test: Effective dose / protection efficacy, human-bait technique; assay type: in vivo; conditions: for pest or weed control at 0.081 µg/cm2, 0.081 µg/cm2 / pest or weed control at 0.17 µg/cm2, 0.17 µg/cm2 / pest or weed control at 0.33 µg/cm2, 0.33 µg/cm2 / pest or weed control at 0.5 µg/cm2, 0.5 µg/cm2 / pest or weed control at 0.83 µg/cm2, 0.83 µg/cm2 / pest or weed control at 1.7 µg/cm2, 1.7 µg/cm2 / pest or weed control at 8.3 µg/cm2, 8.3 µg/cm2 / pest or weed control at 16.7 µg/cm2, 16.7 µg/cm2 / pest or weed control at 83.3 µg/cm2, 83.3 µg/cm2: Aedes albopictus, topical, read-out: Protection efficacy PE%; for 100% PE: Table S1; for Protection efficacy (dose to obtain complete protection (100%) from bite attempts): applied on skin of volunteers, 3 min exposure
Description: The repellence of DEET, Icaridin (both supplied by Istituto Biochimico VEBI s.r.l.), acetals, and the synthesized hydroxyacetals was evaluated againstAedes albopictususing the human-bait technique (to simulate the condition of human skin on which repellents will be applied).[22]A. albopictuswas reared and tested at 26 ± 2 °C, ≥60 ± 10% relative humidity (RH), and at 14:10 h light/dark photoperiod, within Plexiglas cylindrical laboratory cages (35 cm diameter, 60 cm length) with one end closed by a net. During the tests, cages contained ≈150 nulliparous, 4–7 day-old, nonblood-fed females. For each compound to be tested, up to six volunteers participated in the trial.
The study was approved by the Regional Ethics Committee for Clinical Trials of Tuscany Region with the registered number 20383. Volunteers agreed to take part in the experiments following informed consent; only volunteers non-allergic to mosquito bites participated in the trials. On the day of the bioassay, they had no contact with lotions, perfumes, oils, or perfumed soaps. They wore latex surgical gloves, in which a dorsal square area of 30 cm^2 was cut open. Mosquito-exposed skin was treated with 50 μL of ethanol, as the negative hand control. The other hand was treated with 50 μL of the tested compounds in ethanol solution (dosages corresponding to 0.081, 0.17, 0.33, 0.5, 0.83, 1.7, 8.3, 16.7, and 83.3 μg/cm^2). Both hands were presented in the same test cage. The number of probing mosquitoes in a 3 min exposure period was recorded. During each test, the control and the treated hand were presented interchanged to verify the mosquitoes’ readiness to bite. Trials were considered valid only if at least 30 mosquitoes performed probing behavior on the control hand before each repellent dosage was tested. The protection efficacy (PE %) obtained from all replicates was calculated, according to the WHO guidelines[31] using this formula [drawing 1]
To evaluate the protection efficacy, volunteers applied increasing doses of the compounds to the skin on the back of their hands (30 cm^2, while the rest was covered with a rubber glove) and counted the number of mosquitoes attempting to bite; the solvent only was used on the control hand. The protection (percentage of repelled mosquitoes) was calculated as reported in the Material and Methods section.

[2] = system: Aedes albopictus; test: Protection time at 0.17 mg/cm2, human-bait technique; assay type: in vivo; conditions: for pest or weed control at 0.17 mg/cm2, 0.17 mg/cm2: Aedes albopictus, topical, read-out: Protection time PE%; for Average PT >95% (% coefficient of variation) / Estimated 100% PT (complete protection time, mean±SE): at the dose of 0.17mg/cm2; for Estimated 100% PT (complete protection time, mean±SE): Kaplan–Meier estimate; for Protection time (95% protection): dose of 0.17 mg/cm^2, tests ended after 8 h
Description: To evaluate the protection time of derivatives, the PE % was measured with 100 μL of a 5% ethanol solution, corresponding to 0.17 mg/cm^2 of exposed skin, under the same laboratory conditions. Mosquito-exposed skin was treated with 100 μL of ethanol, as the negative hand control. For each volunteer (up to 8), the test was performed every hour, up to 8 h from the application. The protection time of DEET and Icaridin was measured under the same conditions. Since these trials were run in parallel with those aimed to profile the cytotoxicity of the compounds (paragraph 2.6), we interrupted the experiments for those compounds showing to have higher cytotoxicity than Icaridin and DEET as soon as the results were available. For this reason, the number of volunteers differs among the compounds.
The average time until protection which was higher than 95% protection time was considered for each compound. Moreover, for the compounds tested on at least three volunteers, the complete (100%) protection time was also estimated (SPSS 28.01.0) using the Kaplan–Meier survivor function procedure.[22]

Q: `CCCCC1(CCCC)OCC(C)(CO)CO1` [16b] was tested. Which pest or weed control at 0.081 µg/cm2, 0.081 µg/cm2 [1] did it give?
A: 0%

Q: What about the pest or weed control at 0.17 µg/cm2, 0.17 µg/cm2 [1] of the same compound?
A: 40.6%

Q: What about the pest or weed control at 0.33 µg/cm2, 0.33 µg/cm2 [1] of the same compound?
A: 31.2%

Q: What about the pest or weed control at 0.5 µg/cm2, 0.5 µg/cm2 [1] of the same compound?
A: 68.4%

Q: What about the pest or weed control at 0.83 µg/cm2, 0.83 µg/cm2 [1] of the same compound?
A: 94.7%

Q: What about the pest or weed control at 1.7 µg/cm2, 1.7 µg/cm2 [1] of the same compound?
A: 100%

Q: What about the pest or weed control at 8.3 µg/cm2, 8.3 µg/cm2 [1] of the same compound?
A: 100%

Q: And the pest or weed control at 16.7 µg/cm2, 16.7 µg/cm2 [1]?
A: 100%

Q: What about the pest or weed control at 83.3 µg/cm2, 83.3 µg/cm2 [1] of the same compound?
A: 100%

Q: What about the “100% PE” value [1] of the same compound?
A: 1.7 µg/cm2

Q: What about the “Protection efficacy (dose to obtain complete protection (100%) from bite attempts)” value [1] of the same compound?
A: 1.7 μg/cm^2

Q: What about the pest or weed control at 0.17 mg/cm2, 0.17 mg/cm2 ([2]; 0.17mg/cm2, 1 h) of the same compound?
A: 98.6%

Q: And the pest or weed control at 0.17 mg/cm2, 0.17 mg/cm2 ([2]; 0.17mg/cm2, 2 h)?
A: 97.5%

Q: And the pest or weed control at 0.17 mg/cm2, 0.17 mg/cm2 ([2]; 0.17mg/cm2, 3 h)?
A: 99.5%

Q: What about the pest or weed control at 0.17 mg/cm2, 0.17 mg/cm2 ([2]; 0.17mg/cm2, 4 h) of the same compound?
A: 96.3%

Q: What about the pest or weed control at 0.17 mg/cm2, 0.17 mg/cm2 ([2]; 0.17mg/cm2, 5 h) of the same compound?
A: 95.1%

Q: And the pest or weed control at 0.17 mg/cm2, 0.17 mg/cm2 ([2]; 0.17mg/cm2, 6 h)?
A: 93.7%

Q: What about the pest or weed control at 0.17 mg/cm2, 0.17 mg/cm2 ([2]; 0.17mg/cm2, 7 h) of the same compound?
A: 96.2%

Q: What about the pest or weed control at 0.17 mg/cm2, 0.17 mg/cm2 ([2]; 0.17mg/cm2, 8 h) of the same compound?
A: 94.6%

Q: And the “Average PT >95% (% coefficient of variation)” value [2]?
A: 420 (8.0) min

Q: And the “Estimated 100% PT (complete protection time, mean±SE)” value [2]?
A: 180 ± 64 min

Q: And the “Protection time (95% protection)” value [2]?
A: 7 h

Q: What does the source list for `CCCCCCCCCC1(C)OCC(CO)O1` (stereo not shown) [22a]?
A: pest or weed control at 0.081 µg/cm2, 0.081 µg/cm2 [1]: 2.83%; pest or weed control at 0.17 µg/cm2, 0.17 µg/cm2 [1]: 32.6%; pest or weed control at 0.33 µg/cm2, 0.33 µg/cm2 [1]: 50%; pest or weed control at 0.5 µg/cm2, 0.5 µg/cm2 [1]: 37.5%; pest or weed control at 0.83 µg/cm2, 0.83 µg/cm2 [1]: 65.4%; pest or weed control at 1.7 µg/cm2, 1.7 µg/cm2 [1]: 94.2%; pest or weed control at 8.3 µg/cm2, 8.3 µg/cm2 [1]: 100%; pest or weed control at 16.7 µg/cm2, 16.7 µg/cm2 [1]: 100%; pest or weed control at 83.3 µg/cm2, 83.3 µg/cm2 [1]: 100%; Protection efficacy (dose to obtain complete protection (100%) from bite attempts) [1]: 8.3 μg/cm^2; pest or weed control at 0.17 mg/cm2, 0.17 mg/cm2 ([2]; 0.17mg/cm2, 1 h): 100%; pest or weed control at 0.17 mg/cm2, 0.17 mg/cm2 ([2]; 0.17mg/cm2, 2 h): 100%; pest or weed control at 0.17 mg/cm2, 0.17 mg/cm2 ([2]; 0.17mg/cm2, 3 h): 98.9%; pest or weed control at 0.17 mg/cm2, 0.17 mg/cm2 ([2]; 0.17mg/cm2, 4 h): 98.2%; pest or weed control at 0.17 mg/cm2, 0.17 mg/cm2 ([2]; 0.17mg/cm2, 5 h): 95.2%; pest or weed control at 0.17 mg/cm2, 0.17 mg/cm2 ([2]; 0.17mg/cm2, 6 h): 99.5%; pest or weed control at 0.17 mg/cm2, 0.17 mg/cm2 ([2]; 0.17mg/cm2, 7 h): 96.6%; pest or weed control at 0.17 mg/cm2, 0.17 mg/cm2 ([2]; 0.17mg/cm2, 8 h): 90%; Average PT >95% (% coefficient of variation) [2]: 420 (3.5) min; Estimated 100% PT (complete protection time, mean±SE) [2]: 380 ± 105 min; Protection time (95% protection) [2]: 7 h

Q: What does the source list for `CCN(CC)C(=O)c1cccc(C)c1` [DEET, N,N-diethyl-3-methylbenzamide, reference compound]?
A: pest or weed control at 0.081 µg/cm2, 0.081 µg/cm2 [1]: 18.9%; pest or weed control at 0.17 µg/cm2, 0.17 µg/cm2 [1]: 34.7%; pest or weed control at 0.33 µg/cm2, 0.33 µg/cm2 [1]: 67.3%; pest or weed control at 0.5 µg/cm2, 0.5 µg/cm2 [1]: 74.4%; pest or weed control at 0.83 µg/cm2, 0.83 µg/cm2 [1]: 79.8%; pest or weed control at 1.7 µg/cm2, 1.7 µg/cm2 [1]: 88.6%; pest or weed control at 8.3 µg/cm2, 8.3 µg/cm2 [1]: 100%; pest or weed control at 16.7 µg/cm2, 16.7 µg/cm2 [1]: 100%; pest or weed control at 83.3 µg/cm2, 83.3 µg/cm2 [1]: 100%; 100% PE [1]: 8.3 µg/cm2; Protection efficacy (dose to obtain complete protection (100%) from bite attempts) [1]: 8.3 μg/cm^2; pest or weed control at 0.17 mg/cm2, 0.17 mg/cm2 ([2]; 0.17mg/cm2, 1 h): 98%; pest or weed control at 0.17 mg/cm2, 0.17 mg/cm2 ([2]; 0.17mg/cm2, 2 h): 87.4%; pest or weed control at 0.17 mg/cm2, 0.17 mg/cm2 ([2]; 0.17mg/cm2, 3 h): 81.4%; pest or weed control at 0.17 mg/cm2, 0.17 mg/cm2 ([2]; 0.17mg/cm2, 4 h): 59.4%; Average PT >95% (% coefficient of variation) [2]: 120 (1.4) min; Estimated 100% PT (complete protection time, mean±SE) [2]: 120 ± 26 min; Protection time (95% protection) [2]: 2 h
